# In patent US8426569B2, “DNA capable of being amplified by PCR with high selectivity and high efficiency” (Riken, priority 2008, dated 2013):
# Legend:
# [1] = biological target: T1, DeepVent DNA polymerase (Pyrococcus sp., UniProt Q51334, DEL493-1029); format: biochemical
# [2] = biological target: T1, DeepVent DNA polymerase; format: biochemical; remark: listed apart in the source
# [3] = biological target: Klenow fragment of DNA polymerase I (KF exo-) (Escherichia coli, UniProt P00582, D355A/E357A)
# Sequence of Klenow fragment of DNA polymerase I (KF exo-) (P00582 324-928 D355A/E357A limits assumed): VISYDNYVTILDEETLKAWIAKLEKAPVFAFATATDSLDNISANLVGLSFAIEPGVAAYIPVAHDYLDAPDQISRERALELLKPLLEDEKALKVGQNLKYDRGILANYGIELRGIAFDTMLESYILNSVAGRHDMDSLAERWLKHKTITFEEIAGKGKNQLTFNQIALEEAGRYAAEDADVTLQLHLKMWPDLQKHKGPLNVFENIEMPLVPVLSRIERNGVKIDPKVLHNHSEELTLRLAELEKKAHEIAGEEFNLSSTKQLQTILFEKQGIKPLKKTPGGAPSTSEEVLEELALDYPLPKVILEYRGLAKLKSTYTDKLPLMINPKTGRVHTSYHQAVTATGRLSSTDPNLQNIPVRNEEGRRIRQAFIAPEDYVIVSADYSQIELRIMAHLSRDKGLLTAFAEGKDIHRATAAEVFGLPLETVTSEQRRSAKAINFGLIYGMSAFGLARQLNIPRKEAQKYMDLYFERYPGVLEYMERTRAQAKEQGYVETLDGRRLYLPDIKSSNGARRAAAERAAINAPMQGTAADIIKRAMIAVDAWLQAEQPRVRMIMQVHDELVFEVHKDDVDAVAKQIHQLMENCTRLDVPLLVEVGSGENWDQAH
# T1 sequence (Q51334 with tags, fused parts or gaps DEL493-1029): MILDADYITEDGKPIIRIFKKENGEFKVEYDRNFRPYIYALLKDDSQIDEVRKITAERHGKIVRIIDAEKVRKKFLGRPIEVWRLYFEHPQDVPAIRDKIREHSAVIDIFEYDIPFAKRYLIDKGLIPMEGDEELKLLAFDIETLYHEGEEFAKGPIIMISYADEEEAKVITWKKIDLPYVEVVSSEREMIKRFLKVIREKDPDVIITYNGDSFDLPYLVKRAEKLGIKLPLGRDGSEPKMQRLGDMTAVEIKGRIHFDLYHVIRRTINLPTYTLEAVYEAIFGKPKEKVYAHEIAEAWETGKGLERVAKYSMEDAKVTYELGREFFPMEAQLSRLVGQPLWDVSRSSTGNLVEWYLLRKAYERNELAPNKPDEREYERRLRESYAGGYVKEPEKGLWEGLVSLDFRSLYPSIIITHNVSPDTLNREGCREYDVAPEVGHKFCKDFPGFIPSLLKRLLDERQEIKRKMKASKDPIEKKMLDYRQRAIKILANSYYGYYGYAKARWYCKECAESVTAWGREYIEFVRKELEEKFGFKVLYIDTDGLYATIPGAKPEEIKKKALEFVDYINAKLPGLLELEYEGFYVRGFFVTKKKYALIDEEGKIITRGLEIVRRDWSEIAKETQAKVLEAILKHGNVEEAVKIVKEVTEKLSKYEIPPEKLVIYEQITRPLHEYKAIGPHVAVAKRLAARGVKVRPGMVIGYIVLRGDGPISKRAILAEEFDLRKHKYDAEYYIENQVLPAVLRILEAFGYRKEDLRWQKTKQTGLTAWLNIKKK
structure (smiles),measurement,setting,value
"NCCCCCC(=O)NCC#Cc1cc([N+](=O)[O-])n([C@H]2C[C@H](O)[C@@H](COP(=O)(O)OP(=O)(O)OP(=O)(O)O)O2)c1 [NH2-hx-dPnTP, 1-(2-deoxy-β-D-ribofuranosyl)-4-[3-(6-amino-hexanamide)-1-propynyl]-2-nitropyrrole 5′-triphosphate]",amplification of the DNA fragment containing Ds,[1],about 10^8 times
same,conservation of the unnatural base Ds in DNA (sequencing analysis),[1],almost completely conserved
same,conservation of both two sites of the unnatural base Ds in DNA (sequencing pattern analysis),[2],almost completely conserved
same,incorporation efficiency into Ds relative to that of the Pn substrate,[3],about twice
same,incorporation efficiency into natural bases in the template strand,[3],lower than the incorporation efficiency into Ds
